Patent US12239645B2, “Targeted dosing for the treatment of complement mediated disorders” (Achillion Pharmaceuticals, Inc., priority 2018, dated 2025)
Read-outs that look alike come from different tables or passages of the source.

Experiments:
[1] = tested on: complement alternative pathway (AP) activity; assay: Steady-state / PK-PD modeling of AP inhibition versus plasma concentration; set-up: species or system human
Experimental: Based on the ex vivo AP inhibition assay, a steady state model was prepared comparing the % inhibition of Ap based on drug plasma concentration. […] Therefore, Compound 1 is shown to be potent while still having improved safety margins that may allow for better dosing flexibility.

[2] = Phase I single ascending dose (SAD) study: plasma and urine pharmacokinetics; format: in vivo, human; details: for Aeu(%), GM / Aeu(%), Mean: percentage of dose
Experimental: A single ascending dose (SAD) study was the first-in-human study of Compound 1. […] Secondary objectives included evaluation of the pharmacokinetic (PK) profile and the relationship between Compound 1 PK and pharmacodynamic (PD) characteristics, that is, the inhibition of complement alternative pathway (AP) activity (PK/PD).
[…] were dosed and evaluated in 4 dose groups with ten subjects receiving placebo (Table 1). The first dose group had 6 active and 6 placebo subjects; subsequent groups had 6 active and 2 placebo subjects each. Each group was followed for 28 days after dosing. All subjects were monitored for safety through the last scheduled visit at Day 28. Blood and urine samples were collected at predefined time points from Days 1 to 4 to determine plasma and urine concentrations of Compound 1 and from Days 1 to 7 to determine complement related activities. Results of serum AP activity measured by AP Wieslab assay as well as plasma Bb, factor D level and several other PD biomarkers were determined.
For the 18 subjects comprising the Groups 1-3 SAD PK population, a total of 306 plasma samples (17 samples from each subject collected pre-dose and 0.5, 1, 1.5, 2, 2.5, 3, 4, 6, 8, 10, 12, 16, 24 [Day 2], 48 [Day 3], 72 [Day 4], and 144 [Day 7] hours post-dose) were available for PK determination in plasma.
Single ascending doses of Compound 1 were evaluated to determine plasma and urine PK parameters over the dose range of 40 mg to 120 mg studied. Summary statistics for plasma and urine Compound 1 concentration at each nominal sampling time point are presented by randomized treatment group in Table 2.

[3] = tested on: Bb fragment of complement Factor B; assay: MAD study single-dose cohorts: plasma Bb concentration by ELISA; format: in vivo, human; details: 240 mg single dose
Experimental: FIG. 15 is a graphical display of mean plasma Bb concentration as determined by ELISA assay for all subjects in the first 24 hours after administration of Compound 1 at single doses of 240 mg in fasted subjects (n=6), 120 mg in fed subjects (n=6) and placebo (n=4). Horizontal dashed gridlines represent: upper limit of normal (1.42 μg/ml); lower limit of normal (0.48 μg/ml); and lower limit of quantitation (LLOQ) (0.33 μg/ml). The x-axis is Time in hours and the y-axis is Mean Plasma Bb Concentration measured in μg/mL.
Serum AP hemolysis activity was assessed in samples collected at predefined time points from Day 1 (pre-dose) through Day 7. Ex vivo serum AP inhibition was more prolonged in the 240 mg dose group than previously observed in the SAD study at doses up to 120 mg (FIG. 14). […] Mean pre-dose (Day 1, 0 h) activity among active subjects was 123.02% (240 mg) and 110.43% (120 mg). Activity was reduced to 10% or lower from 1.5 h through 16 h in the 240 mg group, and from 2 h through 6 h in the 120 mg group. Activity was recovered to nearly pre-dose levels by 48 hours. AP activity in placebo subjects in contrast varied little from the pre-dose value of 109.52%, with a minimum value among all time points of 81.46%. […]

[4] = 40 mg single dose, fasted, plasma
[5] = 40 mg single dose, fasted, urine
[6] = 80 mg single dose, fasted, plasma
[7] = 80 mg single dose, fasted, urine
[8] = 120 mg single dose, fasted, plasma
[9] = 120 mg single dose, fasted, urine

For CC(=O)c1nn(CC(=O)N2[C@H](C(=O)Nc3nc(Br)ccc3C)C[C@@]3(C)C[C@@H]23)c2ccc(-c3cnc(C)nc3)cc12 [Compound 1, (1R,3S,5R)-2-(2-(3-acetyl-5-(2-methylpyrimidin-5-yl)-1H-indazol-1-yl)acetyl)-N-(6-bromo-3-methylpyridin-2-yl)-5-methyl-2-azabicyclo[3.1.0]hexane-3-carboxamide], which “inhibition of AP activity” value ([1]; at Ctrough of 65 ng/mL to 95 ng/mL) is on record?
Its value is “greater than 85%”.

What about the AP inhibition ([1]; at Ctrough of about 88 ng/mL) of the same compound?
Its AP inhibition is > 90%.

And the AP inhibition ([1]; at Ctrough of about 67-88 ng/mL)?
The AP inhibition was “greater than 90%”.

And the “EC90 (plasma concentration providing about 90% AP activity inhibition)” value ([1]; modeling)?
The value was 0.067 to 0.088 µg/mL.

What about the “IC90 of AP activity (Ctrough for 90% inhibition)” value ([1]; steady-state modeling from SAD ex vivo AP inhibition, FIG. 10) of the same compound?
Its value is “about 67 ng/mL”.

What about the “Maximum mean plasma concentration” value ([2]; 40 mg single dose) of the same compound?
The value was 78.03 ± 19.65 ng/mL.

And the “CL/F, GM” value [2, 4]?
Its value is 81.26 L/h.

What about the “CL/F, Mean” value [2, 4] of the same compound?
The value was 84.27 L/h.

And the “t½term, GM” value [2, 4]?
The value was 12.51 h.

What about the “t½term, Mean” value [2, 4] of the same compound?
Its value is 13.08 h.

And the “Aeu, GM” value [2, 5]?
Its value is 0.0671 mg.

And the “Aeu, Mean” value [2, 5]?
Its value is 0.0749 mg.

And the “Aeu(%), GM” value [2, 5]?
Its value is 0.17%.

And the “Aeu(%), Mean” value [2, 5]?
Its value is 0.19%.

What about the “Maximum mean plasma concentration” value ([2]; 80 mg single dose) of the same compound?
Its value is 224.05 ± 108.27 ng/mL.

What about the “CL/F, GM” value [2, 6] of the same compound?
The value was 63.52 L/h.

And the “CL/F, Mean” value [2, 6]?
Its value is 70.25 L/h.

What about the “t½term, GM” value [2, 6] of the same compound?
Its value is 9.80 h.

What about the “t½term, Mean” value [2, 6] of the same compound?
The value was 9.92 h.

What about the “Aeu, GM” value [2, 7] of the same compound?
The value was 0.2045 mg.

What about the “Aeu, Mean” value [2, 7] of the same compound?
The value was 0.3058 mg.

And the “Aeu(%), GM” value [2, 7]?
Its value is 0.26%.

What about the “Aeu(%), Mean” value [2, 7] of the same compound?
The value was 0.38%.

And the “Maximum mean plasma concentration” value ([2]; 120 mg single dose)?
Its value is 282.83 ± 89.15 ng/mL.

And the “CL/F, GM” value [2, 8]?
Its value is 71.87 L/h.

What about the “CL/F, Mean” value [2, 8] of the same compound?
Its value is 73.25 L/h.

And the “t½term, GM” value [2, 8]?
The value was 12.67 h.

What about the “t½term, Mean” value [2, 8] of the same compound?
The value was 13.90 h.

What about the “Aeu, GM” value [2, 9] of the same compound?
Its value is 0.2683 mg.

What about the “Aeu, Mean” value [2, 9] of the same compound?
Its value is 0.2913 mg.

What about the “Aeu(%), GM” value [2, 9] of the same compound?
The value was 0.22%.

What about the “Aeu(%), Mean” value [2, 9] of the same compound?
The value was 0.24%.

What about the “last post-dose time point with detected plasma concentration” value ([2]; all SAD dose groups) of the same compound?
Its value is 72 h.

What about the CL renal ([2]; human, plasma and urine, oral, 40 mg to 120 mg single dose, read-out: Renal clearance, geometric mean, range over dose groups) of the same compound?
Its CL renal is 2.67 to 3.17 mL/min.

And the AUC(0-inf) ([2]; human, plasma, oral, 40 mg, 40 mg single dose, fasted, plasma, read-out: AUC0-inf, GM)?
The AUC(0-inf) was 492 ng·h/mL.

And the AUC(0-inf) ([2]; human, plasma, oral, 40 mg, 40 mg single dose, fasted, plasma, read-out: AUC0-inf, Mean)?
Its AUC(0-inf) is 514 ng·h/mL.

And the Cmax ([2]; human, plasma, oral, 40 mg, 40 mg single dose, fasted, plasma, read-out: Cmax, GM)?
Its Cmax is 85.3 ng/mL.

And the Cmax ([2]; human, plasma, oral, 40 mg, 40 mg single dose, fasted, plasma, read-out: Cmax, Mean)?
The Cmax was 88.6 ng/mL.

What about the Cmax ([2]; human, plasma, oral, 40 mg, 40 mg single dose, fasted, plasma, read-out: Cmax, Median) of the same compound?
The Cmax was 79.1 ng/mL.

What about the Vd/F ([2]; human, plasma, oral, 40 mg, 40 mg single dose, fasted, plasma, read-out: Vz/F, GM) of the same compound?
The Vd/F was 1470 L.

And the Vd/F ([2]; human, plasma, oral, 40 mg, 40 mg single dose, fasted, plasma, read-out: Vz/F, Mean)?
Its Vd/F is 1500 L.

What about the Tmax ([2]; human, plasma, oral, 40 mg, 40 mg single dose, fasted, plasma, read-out: tmax, GM) of the same compound?
The Tmax was 1.65 h.

And the Tmax ([2]; human, plasma, oral, 40 mg, 40 mg single dose, fasted, plasma, read-out: tmax, Mean)?
Its Tmax is 1.75 h.

What about the Tmax ([2]; human, plasma, oral, 40 mg, 40 mg single dose, fasted, plasma, read-out: tmax, Median) of the same compound?
The Tmax was 1.5 h.

What about the AUC(0-inf) ([2]; human, plasma, oral, 80 mg, 80 mg single dose, fasted, plasma, read-out: AUC0-inf, GM) of the same compound?
The AUC(0-inf) was 1260 ng·h/mL.

What about the AUC(0-inf) ([2]; human, plasma, oral, 80 mg, 80 mg single dose, fasted, plasma, read-out: AUC0-inf, Mean) of the same compound?
The AUC(0-inf) was 1390 ng·h/mL.

And the Cmax ([2]; human, plasma, oral, 80 mg, 80 mg single dose, fasted, plasma, read-out: Cmax, GM)?
The Cmax was 232 ng/mL.

What about the Cmax ([2]; human, plasma, oral, 80 mg, 80 mg single dose, fasted, plasma, read-out: Cmax, Mean) of the same compound?
The Cmax was 253 ng/mL.

And the Cmax ([2]; human, plasma, oral, 80 mg, 80 mg single dose, fasted, plasma, read-out: Cmax, Median)?
The Cmax was 247 ng/mL.

What about the Vd/F ([2]; human, plasma, oral, 80 mg, 80 mg single dose, fasted, plasma, read-out: Vz/F, GM) of the same compound?
Its Vd/F is 899 L.

What about the Vd/F ([2]; human, plasma, oral, 80 mg, 80 mg single dose, fasted, plasma, read-out: Vz/F, Mean) of the same compound?
The Vd/F was 992 L.

And the Tmax ([2]; human, plasma, oral, 80 mg, 80 mg single dose, fasted, plasma, read-out: tmax, GM)?
Its Tmax is 1.85 h.

What about the Tmax ([2]; human, plasma, oral, 80 mg, 80 mg single dose, fasted, plasma, read-out: tmax, Mean) of the same compound?
The Tmax was 2 h.

What about the Tmax ([2]; human, plasma, oral, 80 mg, 80 mg single dose, fasted, plasma, read-out: tmax, Median) of the same compound?
Its Tmax is 1.75 h.

And the AUC(0-inf) ([2]; human, plasma, oral, 120 mg, 120 mg single dose, fasted, plasma, read-out: AUC0-inf, GM)?
The AUC(0-inf) was 1670 ng·h/mL.

What about the AUC(0-inf) ([2]; human, plasma, oral, 120 mg, 120 mg single dose, fasted, plasma, read-out: AUC0-inf, Mean) of the same compound?
Its AUC(0-inf) is 1710 ng·h/mL.

And the Cmax ([2]; human, plasma, oral, 120 mg, 120 mg single dose, fasted, plasma, read-out: Cmax, GM)?
Its Cmax is 303 ng/mL.

And the Cmax ([2]; human, plasma, oral, 120 mg, 120 mg single dose, fasted, plasma, read-out: Cmax, Mean)?
The Cmax was 316 ng/mL.

And the Cmax ([2]; human, plasma, oral, 120 mg, 120 mg single dose, fasted, plasma, read-out: Cmax, Median)?
The Cmax was 260 ng/mL.

What about the Vd/F ([2]; human, plasma, oral, 120 mg, 120 mg single dose, fasted, plasma, read-out: Vz/F, GM) of the same compound?
Its Vd/F is 1310 L.

What about the Vd/F ([2]; human, plasma, oral, 120 mg, 120 mg single dose, fasted, plasma, read-out: Vz/F, Mean) of the same compound?
The Vd/F was 1460 L.

What about the Tmax ([2]; human, plasma, oral, 120 mg, 120 mg single dose, fasted, plasma, read-out: tmax, GM) of the same compound?
The Tmax was 2.54 h.

And the Tmax ([2]; human, plasma, oral, 120 mg, 120 mg single dose, fasted, plasma, read-out: tmax, Mean)?
The Tmax was 2.58 h.

What about the Tmax ([2]; human, plasma, oral, 120 mg, 120 mg single dose, fasted, plasma, read-out: tmax, Median) of the same compound?
Its Tmax is 2.75 h.

What about the half-life ([2]; human, plasma, oral, 40 mg to 120 mg single dose, read-out: Mean terminal elimination half-life (t1/2 term), range over dose groups) of the same compound?
The half-life was 9.92 to 13.9 h.

And the Tmax ([2]; human, plasma, oral, 40 mg to 120 mg single dose, read-out: Median tmax, range over dose groups)?
Its Tmax is 1.5 to 2.75 h.

What about the CL renal ([2]; human, urine, oral, 40 mg, 40 mg single dose, fasted, urine, read-out: CLr, GM (converted)) of the same compound?
Its CL renal is 2.67 mL/min.

What about the CL renal ([2]; human, urine, oral, 40 mg, 40 mg single dose, fasted, urine, read-out: CLr, Mean (converted)) of the same compound?
The CL renal was 2.67 mL/min.

And the CL renal ([2]; human, urine, oral, 80 mg, 80 mg single dose, fasted, urine, read-out: CLr, GM (converted))?
Its CL renal is 3 mL/min.

What about the CL renal ([2]; human, urine, oral, 80 mg, 80 mg single dose, fasted, urine, read-out: CLr, Mean (converted)) of the same compound?
Its CL renal is 3.5 mL/min.

And the CL renal ([2]; human, urine, oral, 120 mg, 120 mg single dose, fasted, urine, read-out: CLr, GM (converted))?
The CL renal was 3.17 mL/min.

And the CL renal ([2]; human, urine, oral, 120 mg, 120 mg single dose, fasted, urine, read-out: CLr, Mean (converted))?
Its CL renal is 3.5 mL/min.

What about the “time plasma Bb remained near its nadir post-dose” value [3] of the same compound?
The value was “at least 16 hours”.
